Measured values from patent US20230355596A1, “COMPOSITIONS AND METHODS OF USING NMDAR INHIBITORS AND KINASE INHIBITORS TO TREAT LIVER CANCER” (The University of Hong Kong, priority 2022, published 2023).

Key:
RIL-175 cells = test: Lung metastasis model (tail vein injection); type: in vivo, mouse; conditions: nude mice, 20 mg/kg ifenprodil, 28 mg/kg sorafenib, 10 days
MHCC97L cells [1] = test: RNA-sequencing of drug-treated cells; type: cell-based, human; conditions: 10 μM ifenprodil, 5 μM sorafenib, 24 hours
Procedure: 3×10^5 MHCC97L cells were seeded onto a 10 -cm dish. 10 μM ifenprodil, 5 μM sorafenib, or both were added to the cells 1 day after seeding, and the control group was treated with DMSO (Sigma-Aldrich). After 24 hours of drug treatment, RNA was extracted using the MiniBEST Universal RNA Extraction Kit (TaKaRa) following the manufacturer's protocol. The final product was eluted in DEPC-treated H2O (ThermoFisher Scientific). RNA-seq experiments were performed at the Centre for Genomic Sciences (LKS Faculty of Medicine, The University of Hong Kong). The Illumina adaptors of the paired-end raw sequence reads were trimmed by Trimmomatic 0.39. The STAR aligner version 2.7 was used to align the sequence reads to the human genome (GRCh38.p13, Ensembl release 99) and quantify read counts for each Ensembl gene feature, which generated the raw count gene matrix. Differential expression analysis was performed in R (v 3.6.3) using DESeq2 (1.26.0) with the raw count matrix as input. Three biological replicates each for the ifenprodil-, sorafenib-, and ifenprodil+sorafenib combination-treated groups are compared against the DMSO-treated negative control group. Differentially expressed genes (DEGs) were identified as genes with the absolute values of its shrunken log2 fold-changes bigger than 1 and a false discovery rate smaller than 0.05. Gene annotation was done using the bioMaRt (2.42.1) package with Ensembl Human genes (GRCh38.p13) dataset. Gene ontology enrichment analysis was performed on up/down regulated DEGs retrieved from either ifenprodil, sorafenib, or ifenprodil+sorafenib treatment using string v11.0 (internet site: string-db.org/). Top hits Gene ontologies (biological processes) were identified as GO enriched with a false discovery rate less than 0.01 and contain more than 40 observations for over-expressions and down-regulations of DEGs in total across all treatments. More specific GO terms containing fewer than 3000 genes and fewer than 300 observations across all treatments were then focused on.

MHCC97L cells [2] = test: Cell cycle analysis (PI staining, flow cytometry); type: cell-based, human; conditions: 10 μM ifenprodil, 5 μM sorafenib, 24 hours
Source text: Cells transduced with florescent proteins were trypsinized, washed with PBS, and resuspended in PBS containing 2% FBS. Resuspended cells were subjected to flow cytometry analysis using the BD FACSCantoII, ACEA NovoCyte Quanteon (Agilent) or BD LSR Fortessa Analyzer (BD Biosciences). The signal of TurboRFP and EGFP was detected by a 561 nm yellow-green laser (610/20 nm) and a 488 nm blue laser (530/30 nm), respectively. For cell cycle analysis, cells harvested by trypsinization were washed by PBS. Cell pellets were fixed by ice-cold 70% ethanol at 4° C. for 1 hour. The fixed cells were rehydrated by replacing ethanol with PBS for 15 minutes at room temperature for cell cycle analysis. To remove RNAs, 5 μl RNase A (10 mg/ml) per 500 μl PBS was added and incubated at 37° C. for 15 minutes. The DNA contents were stained by propidium iodide (ThermoFisher Scientific) for 1 hour at room temperature in dark. Signal was detected by a 561 nm yellow-green laser (581/15 nm). FlowJo software (v10.5.3, Becton Dickinson) was used for data analysis. For cell sorting, cells were collected following the normal trypsinization and PBS washing steps. Cell pellets were resuspended in PBS with 2% FBS and 2X antibiotic-antimycotic. […] Signal was detected by a 488 nm blue laser (530/40 nm). ˜500-fold more cells were sorted into culture medium supplemented with 10% FBS and 2X antibiotic-antimycotic. […]

HCC organoids = test: Limiting dilution spheroid formation assay on organoids; type: cell-based, human; conditions: 20 μM ifenprodil and 8 μM sorafenib, 3 days
Procedure: Resuspended cells were cultured in DMEM/F12 (ThermoFisher Scientific) medium containing 0.25% methylcellulose (Sigma-Aldrich), 20 ng/ml EGF (Sigma-Aldrich), 10 ng/ml FGF (Sigma-Aldrich), 4 μg/ml insulin (Sigma-Aldrich), 1% B27 (ThermoFisher Scientific), and 1% antibiotic-antimycotic (ThermoFisher Scientific). Serial dilution of cells (5, 10, 20, 50, and 100 cells from the HCC cell lines and cells dissociated from the xenografts; 10, 20, 50, 100, 200 cells from the HCC organoids) were seeded onto a 96-well plate in 6 replicates for each dilution. Fresh medium was replenished every two days. The number of wells with spheroids formed were counted after a 10-day culture. The stem cell frequency was calculated using ELDA: Extreme Limiting Dilution Analysis (internet site bioinf.wehi.edu.au/software/elda/). In the data plots, the y-axis “fraction nonresponding” refers to the log proportion of number of cultures not responding to form spheroids, while the x-axis “dose (number of cells)” refers to the number of cells used in each culture. The slope of the line is the log-active cell fraction, representing the estimated active cell frequency in forming spheroids, and the dotted lines gives the 95% confidence interval.

Row | SMILES | metastases of mouse HCC cells to form tumors in the lung (RIL-175 cells) | CDK1A expression (RNA-seq) compared to non-treated cells (MHCC97L cells [1]) | CDK2 expression (RNA-seq) compared to non-treated cells (MHCC97L cells [1]) | DDIT3 expression (RNA-seq) compared to non-treated cells (MHCC97L cells [1]) | ERN1 expression (RNA-seq) compared to non-treated cells (MHCC97L cells [1]) | G1-phase cell-cycle arrest (MHCC97L cells [2]) | ability of HCC organoids to assemble tumor spheroids (HCC organoids)
1 | CC(C(O)c1ccc(O)cc1)N1CCC(Cc2ccccc2)CC1 (centres unmarked) [Ifenprodil, ifenprodil] | did not affect the metastases | significantly upregulated | significantly downregulated | significantly upregulated | no differences were observed | not with either IFEN or SOR alone | not either drug alone
2 | CNC(=O)c1cc(Oc2ccc(NC(=O)Nc3ccc(Cl)c(C(F)(F)F)c3)cc2)ccn1 [Sorafenib, sorafenib] | did not affect the metastases | significantly upregulated | significantly downregulated | significantly upregulated | significantly upregulated | not with either IFEN or SOR alone | not either drug alone
